Consider twelve compounds from US20220388964A1 (HiberCell, Inc., priority 2019, published 2022).

Molecules are shown by their SMILES. Bounds are passed on as bounds.

As usually defined, the IC50 is the concentration that gives 50% inhibition.

Sequence of GCN2 (Q9P2K8 whole entry): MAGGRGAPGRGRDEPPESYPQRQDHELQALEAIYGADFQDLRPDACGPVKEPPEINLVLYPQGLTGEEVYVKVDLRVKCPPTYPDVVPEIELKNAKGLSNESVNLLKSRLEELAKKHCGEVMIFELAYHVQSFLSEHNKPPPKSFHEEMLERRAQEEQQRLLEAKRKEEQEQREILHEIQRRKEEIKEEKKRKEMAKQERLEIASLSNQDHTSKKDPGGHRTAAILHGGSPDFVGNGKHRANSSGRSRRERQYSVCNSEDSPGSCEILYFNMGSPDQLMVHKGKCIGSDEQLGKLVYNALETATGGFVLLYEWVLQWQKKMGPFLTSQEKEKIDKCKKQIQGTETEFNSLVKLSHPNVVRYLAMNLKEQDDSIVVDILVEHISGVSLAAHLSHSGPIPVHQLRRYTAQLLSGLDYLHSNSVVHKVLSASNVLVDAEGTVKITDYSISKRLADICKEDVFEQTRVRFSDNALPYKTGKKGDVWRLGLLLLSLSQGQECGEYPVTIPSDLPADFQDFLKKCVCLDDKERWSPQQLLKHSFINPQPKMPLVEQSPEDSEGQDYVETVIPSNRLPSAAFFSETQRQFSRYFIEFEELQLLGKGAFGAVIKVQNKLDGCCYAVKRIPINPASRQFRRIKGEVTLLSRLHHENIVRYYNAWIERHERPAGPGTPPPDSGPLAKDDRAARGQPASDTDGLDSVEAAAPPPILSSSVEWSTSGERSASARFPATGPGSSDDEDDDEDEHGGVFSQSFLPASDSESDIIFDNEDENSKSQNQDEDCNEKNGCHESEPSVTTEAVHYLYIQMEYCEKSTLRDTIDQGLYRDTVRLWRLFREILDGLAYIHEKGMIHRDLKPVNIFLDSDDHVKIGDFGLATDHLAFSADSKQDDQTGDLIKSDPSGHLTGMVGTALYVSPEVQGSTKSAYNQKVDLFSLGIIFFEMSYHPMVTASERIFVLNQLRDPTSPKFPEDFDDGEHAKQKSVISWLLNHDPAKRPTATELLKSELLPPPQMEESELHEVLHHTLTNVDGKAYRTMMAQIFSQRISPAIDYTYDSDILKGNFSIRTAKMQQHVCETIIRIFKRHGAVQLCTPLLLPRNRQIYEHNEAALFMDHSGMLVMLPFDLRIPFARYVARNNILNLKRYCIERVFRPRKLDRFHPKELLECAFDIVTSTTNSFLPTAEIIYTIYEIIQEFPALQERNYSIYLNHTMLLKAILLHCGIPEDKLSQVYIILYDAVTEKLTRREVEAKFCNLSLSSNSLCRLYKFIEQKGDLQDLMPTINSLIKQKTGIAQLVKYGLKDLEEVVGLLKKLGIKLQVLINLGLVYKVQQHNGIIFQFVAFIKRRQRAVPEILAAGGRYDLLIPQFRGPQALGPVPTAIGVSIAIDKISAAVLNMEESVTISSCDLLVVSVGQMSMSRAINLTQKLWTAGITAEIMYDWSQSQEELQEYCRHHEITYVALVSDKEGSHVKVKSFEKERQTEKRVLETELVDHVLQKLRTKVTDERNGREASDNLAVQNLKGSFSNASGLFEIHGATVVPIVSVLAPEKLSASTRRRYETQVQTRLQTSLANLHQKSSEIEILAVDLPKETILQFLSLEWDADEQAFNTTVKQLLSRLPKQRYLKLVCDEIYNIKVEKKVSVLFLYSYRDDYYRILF

The first experiment has as its target GCN2 (Homo sapiens, UniProt Q9P2K8). Kind of experiment: TR-FRET biochemical assay for inhibition of GCN2 (Example 106, for Example 1-4BB). To be noted: Table 8. (Time-resolved FRET reads energy transfer from a long-lived donor to a nearby acceptor.)
The compound `COc1ncccc1S(=O)(=O)Nc1ccc(F)c(-c2ccc3c(-c4ncc[nH]4)n[nH]c3c2F)c1F` [Example 2U, N-(2,4-difluoro-3-(7-fluoro-3-(1H-imidazol-2-yl)-1H-indazol-6-yl)phenyl)-2-methoxy-pyridine-3-sulfonamide] gave an IC50 of under 500 nM.
Still for that read-out and setting: the result for `COc1ncc(F)cc1S(=O)(=O)Nc1ccc(F)c(-c2ccc3c(-c4ncc[nH]4)n[nH]c3c2F)c1F` [Example 2V, 5-fluoro-N-(2,4-difluoro-3-(7-fluoro-3-(1H-imidazol-2-yl)-1H-indazol-6-yl)phenyl)-2-methoxy-pyridine-3-sulfonamide] reads under 500 nM; that for `Cn1cc(S(=O)(=O)Nc2ccc(F)c(-c3ccc4c(-c5ncc[nH]5)n[nH]c4c3F)c2F)nn1` [Example 2W, N-(2,4-difluoro-3-(7-fluoro-3-(1H-imidazol-2-yl)-1H-indazol-6-yl)phenyl)-1-methyl-1H-1,2,3-triazole-4-sulfonamide], 2500 to 10000 nM; that for `Cn1nncc1S(=O)(=O)Nc1ccc(F)c(-c2ccc3c(-c4ncc[nH]4)n[nH]c3c2F)c1F` [Example 2X, N-(2,4-difluoro-3-(7-fluoro-3-(1H-imidazol-2-yl)-1H-indazol-6-yl)phenyl)-1-methyl-1H-1,2,3-triazole-5-sulfonamide], 2500 to 10000 nM.
The same measure, in the same setting: then `Cn1ncc(S(=O)(=O)Nc2ccc(F)c(-c3ccc4c(-c5ncc[nH]5)n[nH]c4c3F)c2F)n1` [Example 2Y, N-(2,4-difluoro-3-(7-fluoro-3-(1H-imidazol-2-yl)-1H-indazol-6-yl)phenyl)-2-methyl-2H-l,2,3-triazole-4-sulfonamide], with 2500 to 10000 nM; and `COc1ncc(Cl)cc1S(=O)(=O)Nc1ccc(F)c(-c2ccc3c(C(N)=O)n[nH]c3c2F)c1F` [Example 2Z, 6-(3-((5-chloro-2-methoxy-pyridine)-3-sulfonamido)-2,6-difluorophenyl)-7-fluoro-1H-indazole-3-carboxamide], with under 500 nM.
Same read-out and setting: then `O=S(=O)(Nc1ccc(F)c(-c2ccc3c(-c4ncc[nH]4)n[nH]c3c2F)c1F)c1cccc(CO)c1` [Example 3, N-(2,4-Difluoro-3-(7-fluoro-3-(1H-imidazol-2-yl)-1H-indazol-6-yl)phenyl)-3-(hydroxymethyl)benzenesulfonamide], with under 500 nM.

Staying with this experiment, now noted: Table 9.
In turn, `COc1ncc(Cl)cc1S(=O)(=O)Nc1c(F)ccc(-c2ccc3c(-c4ncc[nH]4)n[nH]c3c2F)c1F` [Example 3A, 5-chloro-N-(2,6-difluoro-3-(7-fluoro-3-(1H-imidazol-2-yl)-1H-indazol-6-yl)phenyl)-2-methoxypyridine-3-sulfonamide] had an IC50 of under 500 nM.
Still for that read-out and setting: then `NC(=O)c1n[nH]c2c(F)c(-c3c(F)ccc(NS(=O)(=O)c4cccn5ccnc45)c3F)ccc12` [Example 3AA, 6-(2,6-difluoro-3-(imidazo-[1,2-a]pyridine-8-sulfon-amido)phenyl)-7-fluoro-1H-indazole-3-carboxamide], with 2500 to 10000 nM.
Still for that read-out and setting: then `COc1ncc(F)cc1S(=O)(=O)Nc1ccc(F)c(-c2ccc3c(C(=O)N[C@@H]4CCN(C)C4)n[nH]c3c2F)c1F` [Example 3AB, 6-(3-((5-fluoro-2-methoxy-pyridine)-3-sulfonamido)-2,6-difluorophenyl)-7-fluoro-N-((R)-1-methylpyrrolidin-3-yl)-1H-indazole-3-carboxamide], with under 500 nM.
`COc1ncc(F)cc1S(=O)(=O)Nc1ccc(F)c(-c2ccc3c(C(=O)N[C@H]4CCN(C)C4)n[nH]c3c2F)c1F` [Example 3AC, 6-(3-((5-fluoro-2-methoxy-pyridine)-3-sulfonamido)-2,6-difluorophenyl)-7-fluoro-N-((S)-1-methylpyrrolidin-3-yl)-1H-indazole-3-carboxamide]: the IC50 was 500 to 2500 nM.
The same measure, in the same setting: the result for `COc1ncc(Cl)cc1S(=O)(=O)Nc1ccc(F)c(-c2ccc3c(C(=O)N[C@@H]4CCN(C)C4)n[nH]c3c2F)c1F` [Example 3AD, 6-(3-((5-chloro-2-methoxy-pyridine)-3-sulfonamido)-2,6-difluorophenyl)-7-fluoro-N-((R)-1-methylpyrrolidin-3-yl)-1H-indazole-3-carboxamide] reads under 500 nM.
